According to ChEMBL document CHEMBL4819050, “Discovery of a novel series of guanidinebenzoates as gut-restricted enteropeptidase and trypsin dual inhibitors for the treatment of metabolic syndrome” (Bioorg Med Chem Lett, 2021):

Tests used:
[1] = Volume of distribution at steady state in C57BL/6J mouse at 5 mg/kg, iv; format: ADME, organism-based; details: in vivo, read-out: Vdss
[2] = In vivo inhibition of EP in diet induced obese C57BL/6J mouse assessed as increase in fecal protein content at 30 mg/kg, po measured after 24 hrs relative to control; format: functional
[3] = molecular target: Enteropeptidase (Homo sapiens) (UniProt P98073); experiment: Inhibition of full length recombinant human EP expressed in CHO cells assessed as protease activity using […] as substrate at 0.1 uM by fluorescence assay relative to control; design: scale not given: the % may be the effect or the level left
[4] = Oral bioavailability in C57BL/6J mouse at 20 mg/kg; format: ADME, organism-based; details: in vivo
[5] = molecular target: Enteropeptidase (Homo sapiens) (UniProt P98073); experiment: Inhibition of full length recombinant human EP expressed in CHO cells assessed as protease activity using […] as substrate at 10 uM by fluorescence assay relative to control; design: scale not given: the % may be the effect or the level left
[6] = molecular target: Enteropeptidase (Homo sapiens) (UniProt P98073); experiment: Inhibition of full length recombinant human EP expressed in CHO cells assessed as protease activity using […] as substrate at 1 uM by fluorescence assay relative to control; design: scale not given: the % may be the effect or the level left
[7] = molecular target: Enteropeptidase (Homo sapiens) (UniProt P98073); experiment: Inhibition of full length recombinant human EP expressed in CHO cells assessed as ratio of Kinact/Kiapp; format: cell-based
Bos taurus [8] = species on record: Bos taurus; experiment: Inhibition of bovine trypsin assessed as protease activity using D-CHA-AR-AMC as substrate at 1 uM by fluorescence assay relative to control; design: scale not given: the % may be the effect or the level left
Bos taurus [9] = species on record: Bos taurus; experiment: Inhibition of bovine trypsin assessed as protease activity using D-CHA-AR-AMC as substrate at 10 uM by fluorescence assay relative to control; design: scale not given: the % may be the effect or the level left
[10] = Apparent permeability from apical to basolateral side in dog MDCK cells; format: ADME, cell-based, Canis lupus familiaris
[11] = Clearance in C57BL/6J mouse at 5 mg/kg, iv; format: ADME, organism-based; details: in vivo
[12] = AUClast in C57BL/6J mouse at 20 mg/kg, po; format: ADME, organism-based; design: route oral, time 0 - last, dose 20 mg/kg; details: in vivo
Bos taurus [13] = species on record: Bos taurus; experiment: Inhibition of bovine trypsin assessed as protease activity using D-CHA-AR-AMC as substrate at 0.1 uM by fluorescence assay relative to control; design: scale not given: the % may be the effect or the level left
Bos taurus [14] = species on record: Bos taurus; experiment: Inhibition of bovine trypsin assessed as ratio of Kinact/Kiapp
[15] = Cmax in C57BL/6J mouse at 20 mg/kg, po; format: ADME, organism-based; design: route oral, dose 20 mg/kg; details: in vivo

Chain of Enteropeptidase (Homo sapiens) (P98073 2-784 limits assumed): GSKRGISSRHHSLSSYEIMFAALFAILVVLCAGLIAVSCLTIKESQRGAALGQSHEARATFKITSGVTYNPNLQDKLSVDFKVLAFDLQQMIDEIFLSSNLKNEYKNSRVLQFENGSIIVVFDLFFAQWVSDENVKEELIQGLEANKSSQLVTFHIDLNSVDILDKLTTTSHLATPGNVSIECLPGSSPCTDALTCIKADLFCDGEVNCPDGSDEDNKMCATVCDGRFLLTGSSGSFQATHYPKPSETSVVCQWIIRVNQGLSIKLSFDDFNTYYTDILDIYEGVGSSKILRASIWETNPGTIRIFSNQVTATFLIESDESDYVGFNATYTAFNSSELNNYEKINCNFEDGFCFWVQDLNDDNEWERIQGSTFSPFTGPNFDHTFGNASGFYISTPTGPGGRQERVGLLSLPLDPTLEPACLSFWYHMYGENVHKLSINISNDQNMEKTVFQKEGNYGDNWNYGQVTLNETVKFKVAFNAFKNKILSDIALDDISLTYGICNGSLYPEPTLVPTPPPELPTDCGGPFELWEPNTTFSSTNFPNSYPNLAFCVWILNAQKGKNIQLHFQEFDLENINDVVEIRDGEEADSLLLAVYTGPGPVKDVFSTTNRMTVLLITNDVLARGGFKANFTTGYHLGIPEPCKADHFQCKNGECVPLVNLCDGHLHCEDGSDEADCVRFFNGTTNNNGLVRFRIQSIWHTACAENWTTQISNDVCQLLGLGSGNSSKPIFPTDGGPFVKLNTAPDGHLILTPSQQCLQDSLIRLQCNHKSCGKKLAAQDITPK
Chain of Enteropeptidase (Homo sapiens) (P98073 785-1019 limits assumed): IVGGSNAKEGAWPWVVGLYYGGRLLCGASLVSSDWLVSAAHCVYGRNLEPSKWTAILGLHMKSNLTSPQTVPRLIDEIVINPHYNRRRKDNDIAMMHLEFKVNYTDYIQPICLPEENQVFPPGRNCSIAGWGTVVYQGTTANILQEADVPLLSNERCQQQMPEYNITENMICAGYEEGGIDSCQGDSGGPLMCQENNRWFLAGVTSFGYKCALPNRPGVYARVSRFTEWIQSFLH

Structure (SMILES)	Vd [1]	fold change (FC) [2]	Activity [3]	bioavailability [4]	Activity [5]	Activity [6]	Ratio [7]	Activity (Bos taurus [8])	Activity (Bos taurus [9])	Papp A→B [10]	clearance [11]	AUC(0-t) [12]	Activity (Bos taurus [13])	Ratio (Bos taurus [14])	Cmax [15]
N=C(N)Nc1ccc(C(=O)Oc2ccc(CC(=O)O)n3ncnc23)cc1	3.68 L/kg	2.4	97.8%	1.6%	100%	100%	130000 M⁻¹ s⁻¹	100%	100%	1.53 ×10⁻⁶ cm/s	192 mL/min/kg	27 ng·h/mL	97.2%	159000 M⁻¹ s⁻¹	43 ng/mL
CS(=O)(=O)NC(=O)Cc1ccc(OC(=O)c2ccc(NC(=N)N)cc2)c2ncnn12	–	–	101%	–	100%	100%	181000 M⁻¹ s⁻¹	100%	99.9%	0.51 ×10⁻⁶ cm/s	–	–	98.8%	163000 M⁻¹ s⁻¹	–
N=C(N)Nc1ccc(C(=O)Oc2ccc(CCC(=O)O)n3ccnc23)cc1	–	–	27.6%	–	100%	95.1%	24400 M⁻¹ s⁻¹	100%	100%	–	–	–	61%	–	–
N=C(N)Nc1ccc(C(=O)Oc2ccc(CC(=O)N(CC(=O)O)CC(=O)O)n3ncnc23)cc1	–	1.5	20.9%	–	101%	72.9%	–	99.9%	100%	1.26 ×10⁻⁶ cm/s	–	–	89.6%	–	–
N=C(N)Nc1ccc(C(=O)Oc2ccc(CC(=O)N[C@@H](CC(=O)O)C(=O)O)n3ncnc23)cc1	–	2.4	48.3%	–	101%	101%	–	100%	100%	0.56 ×10⁻⁶ cm/s	–	–	98.3%	–	–
N=C(N)Nc1ccc(C(=O)Oc2ccc(Cc3nn[nH]n3)n3ncnc23)cc1	–	–	89.7%	–	100%	101%	–	100%	100%	1.45 ×10⁻⁶ cm/s	–	–	89.3%	–	–
N=C(N)Nc1ccc(C(=O)Oc2cc(CCC(=O)O)cn3ncnc23)cc1	–	–	45.2%	–	101%	103%	–	100%	100%	1.12 ×10⁻⁶ cm/s	–	–	99.2%	–	–
N=C(N)Nc1ccc(C(=O)Oc2ccc(CC(=O)O)n3ccnc23)cc1	–	–	101%	–	100%	100%	210000 M⁻¹ s⁻¹	101%	101%	1.48 ×10⁻⁶ cm/s	–	–	96.3%	111000 M⁻¹ s⁻¹	–
N=C(N)Nc1ccc(C(=O)Oc2ccc(CC(=O)O)n3ncnc23)cc1F	–	–	96.8%	–	100%	100%	72800 M⁻¹ s⁻¹	100%	100%	–	–	–	87.6%	69700 M⁻¹ s⁻¹	–
C#CCOCCOCC#Cc1ccc(CC(=O)O)n2ncnc12	–	–	63%	–	99.8%	98.5%	52800 M⁻¹ s⁻¹	99.6%	100%	–	–	–	52.9%	59400 M⁻¹ s⁻¹	–
N=C(N)Nc1ccc(C(=O)Oc2ccc(CC(=O)NC(CC(=O)O)(CC(=O)O)CC(=O)O)n3ncnc23)cc1	–	1.7	37.8%	–	100%	100%	–	100%	100%	1.09 ×10⁻⁶ cm/s	–	–	94.1%	–	–
